Data from ChEMBL document CHEMBL4765340, “Novel potent antiplatelet thrombotic agent derived from biguanide for ischemic stroke” (Eur J Med Chem, 2020).
Activity calls are given as the source filed them. The calls are words filed in the database; no cut-off is given here.

What was measured:
[1] = Toxicity in C57BL/6J mouse assessed as change in platelet ratio at 200 mg/kg twice daily for 60 days relative to control; assay type: organism-based; conditions: in vivo, 1440 h, time 60 day
[2] = Suppression of P-selectin expression in thrombin-stimulated human platelets by measuring CD62P positive platelets at 0.01 mM after 3 hrs by flow cytometry analysis (reference value: 78.2%); assay type: functional; conditions: Platelet
[3] = Toxicity against C57BL/6J mouse assessed as liver morphology at 200 mg/kg twice a day measured after 60 days; assay type: organism-based; conditions: in vivo, 1440 h, time 60 day
Mus musculus [4] = experiment: Antithrombotic activity in transient focal cerebral ischemic mouse model occlusion induced 60 mins of the right middle cerebral artery followed by reperfussion 23 hrs assessed as reduction of brain infract volume at 200 mg/kg, po twice daily for 7 days by TTC staining based […] analysis (reference value: 46 +/- 5%); assay type: functional; set-up: scale not given: the % may be the effect or the level left; conditions: time 7 day
[5] = Half life in Sprague-Dawley rat at 200 mg/kg, po measured by HPLC-MS/MS analysis; assay type: ADME, organism-based; conditions: in vivo
[6] = Inhibition of thrombin-stimulated human platelet aggregation by measuring aggregation at 0.50 mM measured after 3 hrs by scanning electron microscopy (Rvb= 87.2 +/- 4.0%); assay type: functional; set-up: scale not given: the % may be the effect or the level left; conditions: dose 0.5 mM
[7] = Inhibition of thrombin-stimulated human platelet aggregation by measuring aggregation at 0.01 mM measured after 3 hrs by scanning electron microscopy (Rvb= 87.2 +/- 4.0%); assay type: functional; set-up: scale not given: the % may be the effect or the level left
[8] = Inhibition of thrombin-stimulated human platelet aggregation by measuring aggregation at 0.05 mM measured after 3 hrs by scanning electron microscopy (Rvb= 87.2 +/- 4.0%); assay type: functional; set-up: scale not given: the % may be the effect or the level left
[9] = Suppression of P-selectin expression in thrombin-stimulated human platelets by measuring CD62P positive platelets at 1 mM after 3 hrs by flow cytometry analysis (reference value: 78.2%); assay type: functional; conditions: Platelet
[10] = Toxicity against C57BL/6J mouse assessed as pancreas morphology at 200 mg/kg twice a day measured after 60 days; assay type: organism-based; conditions: in vivo, 1440 h, time 60 day
[11] = Suppression of glycoprotein IIb/IIIa activation in thrombin-stimulated human platelets by measuring activated GPIIb/IIIa at 1 mM measured after 3 hrs by PAC-1-FITC dye based flow cytometry (reference value: 90.1%); assay type: functional; conditions: Platelet
[12] = Cmax in Sprague-Dawley rat at 200 mg/kg, po compound dissolved in DMSO measured after 2 hr by HPLC-MS/MS analysis; assay type: ADME, organism-based; set-up: route oral, time 2 hrs, dose 200 mg/kg; conditions: in vivo
Platelet [13] = experiment: Antiplatelet activity in thrombin-stimulated human platelet assessed as reduction in the clot retraction preincubated at 0.5 mM with fibrinogen for 3 hrs followed by added thrombin measured after 0.5 hrs (reference value: 80.3 =/- 5.5%); assay type: functional; set-up: scale not given: the % may be the effect or the level left; conditions: time 3.5 hrs
[14] = Toxicity against C57BL/6J mouse assessed as spleen morphology at 200 mg/kg twice a day measured after 60 days; assay type: organism-based; conditions: in vivo, 1440 h, time 60 day
[15] = Suppression of P-selectin expression in thrombin-stimulated human platelets by measuring CD62P positive platelets at 0.05 mM after 3 hrs by flow cytometry analysis (reference value: 78.2%); assay type: functional; conditions: Platelet
Platelet [16] = experiment: Inhibition of thrombin-stimulated human platelet aggregation at 1 mM measured after 3 hrs by scanning electron microscopy (Rvb= 87.2 +/- 4.0%); assay type: functional, tissue-based
[17] = Toxicity in C57BL/6J mouse assessed as change in blood urea nitrogen level at 200 mg/kg twice daily for 60 days relative to control; assay type: organism-based; conditions: in vivo, 1440 h, time 60 day
Platelet [18] = experiment: Cytotoxicity against human platelet assessed as extracellular LDH levels changes at 1 mM incubated for 3 hrs; assay type: cell-based; conditions: 1000 µM
Mus musculus [19] = experiment: Antithrombotic activity in calcein-labelled platelet-mediated ferric chloride-induced arterial injury thrombosis C57BL/6J mouse model assessed as thrombus weight at 300 mg/kg, po administrated twice a day measured upto 7 days (reference value: 3.3 +/- 0.3 mg); assay type: functional; conditions: time day <=7
Platelet [20] = experiment: Inhibition of thrombin-stimulated human platelet aggregation measured after 3 hrs by scanning electron microscopy with 0.01 to 1 U/ml varying concentration of thrombin by lumi-aggregometer; assay type: functional, tissue-based
[21] = Toxicity in calcein-labelled platelet-mediated ferric chloride-induced arterial injury thrombosis po dosed C57BL/6J mouse model assessed as change in activated partial thromboplastin time treated twice a day measured upto 7 days; assay type: organism-based; conditions: in vivo, 168 h, time <=7 day
[22] = Toxicity in C57BL/6J mouse assessed as change in potassium level at 200 mg/kg twice daily for 60 days relative to control; assay type: organism-based; conditions: in vivo, 1440 h, time 60 day
Mus musculus [23] = experiment: Antithrombotic activity in calcein-labelled platelet-mediated ferric chloride-induced arterial injury thrombosis C57BL/6J mouse model assessed as average time to occlusive thrombosis at 300 mg/kg, po administrated twice a day measured upto 7 days (reference value: 7.9 +/- 0.7 min); assay type: functional; conditions: time day <=7
Mus musculus [24] = experiment: Antithrombotic activity in transient focal cerebral ischemic mouse model occlusion induced 60 mins of the right middle cerebral artery followed by reperfussion 23 hrs assessed as reduction of neurological deficits at 200 mg/kg, po twice daily for 7 days […]; assay type: functional, organism-based; conditions: time 7.0 day
[25] = Toxicity in C57BL/6J mouse assessed as change in sodium level at 200 mg/kg twice daily for 60 days relative to control; assay type: organism-based; conditions: in vivo, 1440 h, time 60 day
Mus musculus [26] = experiment: Antithrombotic activity in collagen-epinephrine induced pulmonary thromboembolism mouse model assessed as protection rate at 200 mg/kg, ig twice a day for 7 days followed by administered collagen-epinephrine relative to control; assay type: functional; conditions: time 7 day
[27] = Toxicity against C57BL/6J mouse assessed as heart morphology at 200 mg/kg twice a day measured after 60 days; assay type: organism-based; conditions: in vivo, 1440 h, time 60 day
[28] = Toxicity in C57BL/6J mouse assessed as change in mean platelet volume at 200 mg/kg twice daily for 60 days relative to control; assay type: organism-based; conditions: in vivo, 1440 h, time 60 day
[29] = Suppression of P-selectin expression in thrombin-stimulated human platelets by measuring CD62P positive platelets at 0.50 mM after 3 hrs by flow cytometry analysis (reference value: 78.2%); assay type: functional; conditions: Platelet, at 0.5 mM
Platelet [30] = experiment: Antiplatelet activity in human platelet on collagen-coated surface assessed as shear rate pre-incubated at 0.5 mM measured after 3 hrs by fluorescent microscopy (reference value: 100 =/- 7%); assay type: functional
[31] = Suppression of P-selectin expression in thrombin-stimulated human platelets by measuring CD62P positive platelets at 0.10 mM after 3 hrs by flow cytometry analysis (reference value: 78.2%); assay type: functional; conditions: Platelet, at 0.1 mM
Mus musculus [32] = experiment: Antithrombotic activity in calcein-labelled platelet-mediated ferric chloride-induced arterial injury thrombosis C57BL/6J mouse model assessed as average time to occlusive thrombosis at 100 mg/kg, po administrated twice a day measured upto 7 days (reference value: 7.9 +/- 0.7 min); assay type: functional; conditions: time day <=7
[33] = Toxicity in C57BL/6J mouse assessed as change in bicarbonate level at 200 mg/kg twice daily for 60 days relative to control; assay type: organism-based; conditions: in vivo, 1440 h, time 60 day
[34] = AUC (0 to infinity) in Sprague-Dawley rat at 200 mg/kg, po measured by HPLC-MS/MS analysis; assay type: ADME, organism-based; set-up: time infinity, route oral, dose 200 mg/kg; conditions: in vivo
Mus musculus [35] = experiment: Antithrombotic activity in calcein-labelled platelet-mediated ferric chloride-induced arterial injury thrombosis C57BL/6J mouse model assessed as thrombus length at 100 mg/kg, po administrated twice a day measured upto 7 days (reference value: 4.4 +/- 0.4 mm); assay type: functional; conditions: time day <=7

**Q.** For `CN(C)C(=N)NC(=N)NS(=O)(=O)C(F)(F)F`, which Activity [1] is on record?
**A.** Its Activity is “Non-Toxic”.

**Q.** And the level, % of control at 10 µM [2]?
**A.** The level, % of control at 10 µM was 72.8%.

**Q.** What about the Activity [3] of the same molecule?
**A.** Its Activity is “Non-Toxic”.

**Q.** And the Activity (Mus musculus [4])?
**A.** The Activity was 5%.

**Q.** What about the half-life [5] of the same molecule?
**A.** The half-life was 4.94 h.

**Q.** And the Activity [6]?
**A.** The Activity was 21%.

**Q.** What about the Activity [7] of the same molecule?
**A.** Its Activity is 75.9%.

**Q.** What about the Activity [8] of the same molecule?
**A.** The Activity was 62.2%.

**Q.** What about the level, % of control at 1000 µM [9] of the same molecule?
**A.** The level, % of control at 1000 µM was 46.6%.

**Q.** What about the Activity [10] of the same molecule?
**A.** The Activity was “Non-Toxic”.

**Q.** What about the level, % of control at 1000 µM [11] of the same molecule?
**A.** Its level, % of control at 1000 µM is 37.2%.

**Q.** And the Cmax [12]?
**A.** Its Cmax is 24300 ng/mL.

**Q.** And the Activity (Platelet [13])?
**A.** Its Activity is 28.4%.

**Q.** What about the Activity [14] of the same molecule?
**A.** Its Activity is “Non-Toxic”.

**Q.** What about the level, % of control at 50 µM [15] of the same molecule?
**A.** The level, % of control at 50 µM was 58.9%.

**Q.** And the inhibition (Platelet [16])?
**A.** Its inhibition is “inactive”.

**Q.** What about the Activity [17] of the same molecule?
**A.** The Activity was “Non-Toxic”.

**Q.** And the Activity (Platelet [18])?
**A.** The Activity was “Non-Toxic”.

**Q.** What about the Activity (Mus musculus [19]) of the same molecule?
**A.** Its Activity is 0.4 mg.

**Q.** And the inhibition (Platelet [20])?
**A.** The inhibition was “Active”.

**Q.** What about the Activity [21] of the same molecule?
**A.** The Activity was “Non-Toxic”.

**Q.** What about the Activity [22] of the same molecule?
**A.** The Activity was “Non-Toxic”.

**Q.** What about the Time (Mus musculus [23]) of the same molecule?
**A.** The Time was 22.1 min.

**Q.** What about the Activity (Mus musculus [24]) of the same molecule?
**A.** The Activity was “Active”.

**Q.** What about the Activity [25] of the same molecule?
**A.** The Activity was “Non-Toxic”.

**Q.** What about the Activity (Mus musculus [26]) of the same molecule?
**A.** Its Activity is 70%.

**Q.** What about the Activity [27] of the same molecule?
**A.** The Activity was “Non-Toxic”.

**Q.** What about the Activity [28] of the same molecule?
**A.** The Activity was “Non-Toxic”.

**Q.** And the level, % of control at 500 µM [29]?
**A.** The level, % of control at 500 µM was 45.2%.

**Q.** What about the Activity (Platelet [30]) of the same molecule?
**A.** The Activity was 37%.

**Q.** And the level, % of control at 100 µM [31]?
**A.** The level, % of control at 100 µM was 54.7%.

**Q.** And the Time (Mus musculus [32])?
**A.** The Time was 15.1 min.

**Q.** And the Activity [33]?
**A.** The Activity was “Non-Toxic”.

**Q.** And the AUC(0-inf) [34]?
**A.** The AUC(0-inf) was 201 µg·h/mL.

**Q.** And the Activity (Mus musculus [35])?
**A.** The Activity was 2.8 mm.
